Data as given in patent publication US5612350A, “Macrocyclic immunomodulators with novel cyclohexyl ring replacements” (Abbott Laboratories, priority 1995, dated 1997).

Tested on: human mixed lymphocyte reaction (MLR)
Assay: human mixed lymphocyte reaction (MLR) assay, immunosuppressant activity
Type: cell-based
Settings: for IC50: Table 1
Experimental: In Vitro Assay of Biological Activity
The immunosuppressant activity of the compounds of the present invention was determined using the human mixed lymphocyte reaction (MLR) assay described by. T. Kinoet al. in Transplantation Proceedings, XIX(5):36-39, Suppl. 6 (1987).

Structure (SMILES)	inhibition at 1 µM (Table 1, at 1 × 10^-6 (M), read-out: 25% at 1 × 10^-6 (in the IC50 (M) column))	IC50
CC[C@@H]1/C=C(\C)C[C@H](C)C[C@H](OC)[C@H]2O[C@@](O)(C(=O)C(=O)N3CCCC[C@H]3C(=O)O[C@H](/C(C)=C/[C@@H](CCO)CCC(=O)N3CCOCC3)[C@H](C)[C@@H](O)CC1=O)[C@H](C)C[C@@H]2OC [Example 15]	25%	–
CC[C@@H]1/C=C(\C)C[C@H](C)C[C@H](OC)[C@H]2O[C@@](O)(C(=O)C(=O)N3CCCC[C@H]3C(=O)O[C@H](/C(C)=C/[C@@H]3CCNC(=O)OCC3)[C@H](C)[C@@H](O)CC1=O)[C@H](C)C[C@@H]2OC [Example 37]	–	0.00057 µM
CC[C@@H]1/C=C(\C)C[C@H](C)C[C@H](OC)[C@H]2O[C@@](O)(C(=O)C(=O)N3CCCC[C@H]3C(=O)O[C@H](/C(C)=C/[C@H]3CCOC(=O)CC3)[C@H](C)[C@@H](O)CC1=O)[C@H](C)C[C@@H]2OC [Example 11]	–	0.0011 µM
CCCNC(=O)CC[C@@H](/C=C(\C)[C@H]1OC(=O)[C@@H]2CCCCN2C(=O)C(=O)[C@]2(O)O[C@H]([C@@H](OC)C[C@@H](C)C/C(C)=C/[C@@H](CC)C(=O)C[C@H](O)[C@H]1C)[C@@H](OC)C[C@H]2C)CCO [Example 13]	–	0.388 µM
CC[C@@H]1/C=C(\C)C[C@H](C)C[C@H](OC)[C@H]2O[C@@](O)(C(=O)C(=O)N3CCCC[C@H]3C(=O)O[C@H](/C(C)=C/[C@@H]3CCC(=O)N4CCSC4C3)[C@H](C)[C@@H](O)CC1=O)[C@H](C)C[C@@H]2OC (some centres unmarked) [Example 39]	–	0.037 µM
CC[C@@H]1/C=C(\C)C[C@H](C)C[C@H](OC)[C@H]2O[C@@](O)(C(=O)C(=O)N3CCCC[C@H]3C(=O)O[C@H](/C(C)=C/C3CCN(C(=O)N4CCOCC4)CC3)[C@H](C)[C@@H](O)CC1=O)[C@H](C)C[C@@H]2OC [Example 56]	–	0.0026 µM
CC[C@@H]1/C=C(\C)C[C@H](C)C[C@H](OC)[C@H]2O[C@@](O)(C(=O)C(=O)N3CCCC[C@H]3C(=O)O[C@H](/C(C)=C/[C@@H](CCO)CCC(=O)NCc3ccccc3)[C@H](C)[C@@H](O)CC1=O)[C@H](C)C[C@@H]2OC [Example 7]	–	0.023 µM
CC[C@@H]1/C=C(\C)C[C@H](C)C[C@H](OC)[C@H]2O[C@@](O)(C(=O)C(=O)N3CCCC[C@H]3C(=O)O[C@H](/C(C)=C/[C@@H](CCO)CCC(=O)NCCO)[C@H](C)[C@@H](O)CC1=O)[C@H](C)C[C@@H]2OC [Example 9]	–	0.065 µM
